# Results from PubChem BioAssay (NCI).
#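 Method: 48-hour compound exposure of cells in 96-well plates, five concentrations, linear interpolation of endpoints. Here, GI50 denotes the concentration required for 50% inhibition of growth. At the TGI there is no net growth.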
# Legend:
# Assay in all cases: DTP human tumour cell line panel, 48 h
# HOP-92 NSCLC = system: HOP-92 NSCLC
# T-47D breast = system: T-47D breast
# CAKI-1 renal = system: CAKI-1 renal
# PC-3 prostate = system: PC-3 prostate
# KM12 colon = system: KM12 colon
# HT29 colon = system: HT29 colon
# MOLT-4 leukemia = system: MOLT-4 leukemia
# SF-268 CNS = system: SF-268 CNS
# HL-60(TB) leukemia = system: HL-60(TB) leukemia
# RPMI-8226 leukemia = system: RPMI-8226 leukemia
# A549 NSCLC = system: A549 NSCLC
# OVCAR-8 ovarian = system: OVCAR-8 ovarian
# BT-549 breast = system: BT-549 breast
# SK-MEL-2 melanoma = system: SK-MEL-2 melanoma
# SF-539 CNS = system: SF-539 CNS
# SW-620 colon = system: SW-620 colon
# UACC-62 melanoma = system: UACC-62 melanoma
# RXF 393 renal = system: RXF 393 renal
# K-562 leukemia = system: K-562 leukemia
# A498 renal = system: A498 renal
# NCI-H522 lung = system: NCI-H522 lung
# SR leukemia = system: SR leukemia
# UO-31 renal = system: UO-31 renal
# SK-MEL-5 melanoma = system: SK-MEL-5 melanoma
# HCC-2998 colon = system: HCC-2998 colon
# ACHN renal = system: ACHN renal
# HCT-116 colon = system: HCT-116 colon
# NCI-H226 lung = system: NCI-H226 lung
# SNB-19 CNS = system: SNB-19 CNS
# HS 578T breast = system: HS 578T breast
# LOX IMVI melanoma = system: LOX IMVI melanoma
# M14 melanoma = system: M14 melanoma
# U251 CNS = system: U251 CNS
# TK-10 renal = system: TK-10 renal
# DU-145 prostate = system: DU-145 prostate
# OVCAR-4 ovarian = system: OVCAR-4 ovarian
# MDA-MB-435 = system: MDA-MB-435
# IGROV1 ovarian = system: IGROV1 ovarian
# MALME-3M melanoma = system: MALME-3M melanoma
# SK-MEL-28 melanoma = system: SK-MEL-28 melanoma
# COLO 205 colon = system: COLO 205 colon
# 786-0 renal = system: 786-0 renal
# EKVX NSCLC = system: EKVX NSCLC
# SNB-75 CNS = system: SNB-75 CNS
# OVCAR-5 ovarian = system: OVCAR-5 ovarian
# HOP-62 NSCLC = system: HOP-62 NSCLC
# NCI/ADR-RES ovarian = system: NCI/ADR-RES ovarian
# SF-295 CNS = system: SF-295 CNS
# OVCAR-3 ovarian = system: OVCAR-3 ovarian
# MDA-MB-231 breast = system: MDA-MB-231 breast
# HCT-15 colon = system: HCT-15 colon
# MCF7 breast = system: MCF7 breast
# UACC-257 melanoma = system: UACC-257 melanoma
# SK-OV-3 ovarian = system: SK-OV-3 ovarian
# SN12C renal = system: SN12C renal
compound,measurement,setting,value
CCCCC(OC(=O)c1ccc(N)cc1)C(=O)Nc1nc(CC(=O)OCC)cs1 (stereo not given),GI50,HOP-92 NSCLC,37.5 µM
same,TGI,HOP-92 NSCLC,> 100 µM
same,GI50,T-47D breast,38.7 µM
same,TGI,T-47D breast,> 100 µM
same,GI50,CAKI-1 renal,39.1 µM
same,TGI,CAKI-1 renal,> 100 µM
same,GI50,PC-3 prostate,42.4 µM
same,TGI,PC-3 prostate,> 100 µM
same,GI50,KM12 colon,41.4 µM
same,TGI,KM12 colon,> 100 µM
same,GI50,HT29 colon,36.7 µM
same,TGI,HT29 colon,> 100 µM
same,GI50,MOLT-4 leukemia,35.8 µM
same,TGI,MOLT-4 leukemia,> 100 µM
same,GI50,SF-268 CNS,43.5 µM
same,TGI,SF-268 CNS,> 100 µM
same,GI50,HL-60(TB) leukemia,35.1 µM
same,TGI,HL-60(TB) leukemia,95.1 µM
same,GI50,RPMI-8226 leukemia,26.7 µM
same,TGI,RPMI-8226 leukemia,> 100 µM
same,GI50,A549 NSCLC,37.5 µM
same,TGI,A549 NSCLC,> 100 µM
same,GI50,OVCAR-8 ovarian,40.4 µM
same,TGI,OVCAR-8 ovarian,> 100 µM
same,GI50,BT-549 breast,34.5 µM
same,TGI,BT-549 breast,> 100 µM
same,GI50,SK-MEL-2 melanoma,25.7 µM
same,TGI,SK-MEL-2 melanoma,77.4 µM
same,GI50,SF-539 CNS,33.1 µM
same,TGI,SF-539 CNS,> 100 µM
same,GI50,SW-620 colon,48 µM
same,TGI,SW-620 colon,> 100 µM
same,GI50,UACC-62 melanoma,51.6 µM
same,TGI,UACC-62 melanoma,> 100 µM
same,GI50,RXF 393 renal,38.1 µM
same,TGI,RXF 393 renal,> 100 µM
same,GI50,K-562 leukemia,32.8 µM
same,TGI,K-562 leukemia,> 100 µM
same,GI50,A498 renal,57.4 µM
same,TGI,A498 renal,> 100 µM
same,GI50,NCI-H522 lung,33.9 µM
same,TGI,NCI-H522 lung,> 100 µM
same,GI50,SR leukemia,42.8 µM
same,TGI,SR leukemia,> 100 µM
same,GI50,UO-31 renal,40.9 µM
same,TGI,UO-31 renal,> 100 µM
same,GI50,SK-MEL-5 melanoma,17.8 µM
same,TGI,SK-MEL-5 melanoma,34.5 µM
same,GI50,HCC-2998 colon,67.5 µM
same,TGI,HCC-2998 colon,> 100 µM
same,GI50,ACHN renal,38.8 µM
same,TGI,ACHN renal,> 100 µM
same,GI50,HCT-116 colon,37.3 µM
same,TGI,HCT-116 colon,> 100 µM
same,GI50,NCI-H226 lung,43.5 µM
same,TGI,NCI-H226 lung,> 100 µM
same,GI50,SNB-19 CNS,49.9 µM
same,TGI,SNB-19 CNS,> 100 µM
same,GI50,HS 578T breast,43.4 µM
same,TGI,HS 578T breast,> 100 µM
same,GI50,LOX IMVI melanoma,39 µM
same,TGI,LOX IMVI melanoma,> 100 µM
same,GI50,M14 melanoma,32.8 µM
same,TGI,M14 melanoma,> 100 µM
same,GI50,U251 CNS,44.6 µM
same,TGI,U251 CNS,> 100 µM
same,GI50,TK-10 renal,40 µM
same,TGI,TK-10 renal,> 100 µM
same,GI50,DU-145 prostate,36 µM
same,TGI,DU-145 prostate,> 100 µM
same,GI50,OVCAR-4 ovarian,29.8 µM
same,TGI,OVCAR-4 ovarian,> 100 µM
same,GI50,MDA-MB-435,35 µM
same,TGI,MDA-MB-435,> 100 µM
same,GI50,IGROV1 ovarian,51 µM
same,TGI,IGROV1 ovarian,> 100 µM
same,GI50,MALME-3M melanoma,30.1 µM
same,TGI,MALME-3M melanoma,> 100 µM
same,GI50,SK-MEL-28 melanoma,42.2 µM
same,TGI,SK-MEL-28 melanoma,> 100 µM
same,GI50,COLO 205 colon,31.6 µM
same,TGI,COLO 205 colon,> 100 µM
same,GI50,786-0 renal,53.6 µM
same,TGI,786-0 renal,> 100 µM
same,GI50,EKVX NSCLC,38 µM
same,TGI,EKVX NSCLC,> 100 µM
same,GI50,SNB-75 CNS,35.2 µM
same,TGI,SNB-75 CNS,> 100 µM
same,GI50,OVCAR-5 ovarian,> 100 µM
same,TGI,OVCAR-5 ovarian,> 100 µM
same,GI50,HOP-62 NSCLC,56.5 µM
same,TGI,HOP-62 NSCLC,> 100 µM
same,GI50,NCI/ADR-RES ovarian,33.9 µM
same,TGI,NCI/ADR-RES ovarian,> 100 µM
same,GI50,SF-295 CNS,32.3 µM
same,TGI,SF-295 CNS,> 100 µM
same,GI50,OVCAR-3 ovarian,23.5 µM
same,TGI,OVCAR-3 ovarian,82 µM
same,GI50,MDA-MB-231 breast,28.1 µM
same,TGI,MDA-MB-231 breast,> 100 µM
same,GI50,HCT-15 colon,40.2 µM
same,TGI,HCT-15 colon,> 100 µM
same,GI50,MCF7 breast,34.8 µM
same,TGI,MCF7 breast,> 100 µM
same,GI50,UACC-257 melanoma,42.8 µM
same,TGI,UACC-257 melanoma,> 100 µM
same,GI50,SK-OV-3 ovarian,29.1 µM
same,TGI,SK-OV-3 ovarian,> 100 µM
same,GI50,SN12C renal,41.6 µM
same,TGI,SN12C renal,> 100 µM
